Measured values published in article PMC12607858, “GNAT family Pat2 is required for long-term survival on glycerol and catalyzes lysine acetylation of glycerol kinase in hypersaline-adapted archaea” (mBio, 2025).

What was measured:
HvPat2 (HvPat2-SII) [1] = biological target: T1, HvPat2 (HvPat2-SII) (Haloferax volcanii, UniProt D4GSS9); experiment: anti-acetyllysine immunoblot of in vitro acetylation of His-HvGlpK; type: biochemical; conditions: acetyl donor 0.2 mM; 6 uM enzyme; co-substrate HvGlpK 2 uM; 50 mM HEPES pH 7.5, 2 M NaCl, 1 mM DTT, 37 C, 3 h
T1 construct: gene pat2; full-length single GNAT domain, C-terminal StrepII tag kept; expressed in and purified from H. volcanii H26 delta-pat2; 196 residues with tag, 21,636 Da, monomer
T1 sequence (D4GSS9 entry or part of it): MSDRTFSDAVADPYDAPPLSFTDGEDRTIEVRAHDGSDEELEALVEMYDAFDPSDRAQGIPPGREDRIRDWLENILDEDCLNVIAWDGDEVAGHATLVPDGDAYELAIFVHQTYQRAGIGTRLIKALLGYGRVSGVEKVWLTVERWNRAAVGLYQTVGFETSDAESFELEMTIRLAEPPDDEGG

HvPat2 (HvPat2-SII) [2] = biological target: T2, HvPat2 (HvPat2-SII) (Haloferax volcanii, UniProt D4GSS9, N147A); experiment: as above; type: biochemical; conditions: acetyl donor 0.2 mM; 6 uM enzyme; co-substrate HvGlpK 2 uM; 50 mM HEPES pH 7.5, 2 M NaCl, 1 mM DTT, 37 C, 3 h
T2 construct: gene pat2; full-length single GNAT domain, C-terminal StrepII tag kept; expressed in and purified from H. volcanii H26 delta-pat2; 196 residues with tag, 21,636 Da, monomer
T2 sequence (D4GSS9 entry or part of it N147A): as the sequence (D4GSS9 entry or part of it) above, with N147A counted along it

CC(=O)SCCNC(=O)CCNC(=O)[C@H](O)C(C)(C)COP(=O)(O)OP(=O)(O)OC[C@H]1O[C@@H](n2cnc3c(N)ncnc32)[C@H](O)[C@@H]1OP(=O)(O)O [acetyl-CoA]
anti-acetyllysine immunoblot of in vitro acetylation of His-HvGlpK (HvPat2 (HvPat2-SII) [1]): when His-HvGlpKEc was incubated with both HvPat2 and acetyl-CoA, a strong signal for lysine acetylation | anti-acetyllysine immunoblot of in vitro acetylation of His-HvGlpK (HvPat2 (HvPat2-SII) [2]): The V110A variant showed minimal activity, while N147A exhibited reduced activity
